In patent US11078450B2, “Material containing solid bleaching agent, and detergent composition” (SHIKOKU CHEMICALS CORPORATION, priority 2016, dated 2021):

How the values were obtained:
[1] = Stability test 3 (abrasion test); assay type: physicochemical; details: uncoated; storage 40° C., 75% RH, 3 months
Description: In order to evaluate a stability in the case where a physical impact was applied to the solid bleaching agent-containing materials having a coating layer prepared in Examples 1, 25, 28, 31, 35, 36, 37, 38, and 39, an abrasion test was carried out by using a tablet abrasion tester (manufactured by Toyama Sangyo Co., Ltd.). This tablet abrasion tester is composed of a plastic drum container having an inner diameter of about 286 mm and a depth of about 38 mm, and an electric part rotating the drum container in a vertical direction. Inside the drum container, a partition plate is provided so that a test sample in the container is lifted up to about 157 mm in height and falls each time when the drum container makes one rotation. Such a tablet abrasion tester is readily available. […]
The case where the effective chlorine retention rate was less than 5% was evaluated as failed which is denoted by B because an effect of improving stability was hardly recognized. The case where the effective chlorine retention rate was 5% or more and less than 10% was evaluated as pass which is denoted by A, because an effect of improving stability was recognized. The case where the effective chlorine retention rate was 10% or more was evaluated as particularly excellent among passes, which is denoted by S. The results were as shown in Table 27.

[2] = Stability test 2 (long-term storage test); assay type: physicochemical; details: in pasty detergent composition
Description: In a stainless steel beaker were charged 5 g of distilled water and 3 g of potassium carbonate, and the potassium carbonate was dissolved. […] . The pasty detergent composition heated to 60° C. was accurately weighed within a range of from 2.5 to 3.5 g, a mass thereof was recorded up to 3 decimal places, and added so as to be superimposed on the solid bleaching agent-containing material or sodium dichloroisocyanurate, to thereby prepare detergent compositions containing the solid bleaching agent-containing material or the solid bleaching agent. […] One month later, the entire amount of the detergent composition containing the solid bleaching agent-containing material or the solid bleaching agent in the cup was dissolved in about 100 ml of distilled water, and the effective chlorine retention rate was evaluated from the effective chlorine content in the same manner as in the case of the stability test 1.
. […] The case where the effective chlorine retention rate was less than 5% was evaluated as failed which is denoted by B, because an effect of improving stability was hardly recognized. The case where the effective chlorine retention rate was 5% or more was evaluated as pass which is denoted by A, because an effect of improving stability was recognized. […]

[3] = Stability test 1 (storage test), effective chlorine retention rate
[4] = Stability test 1 (storage test), effective oxygen retention rate; details: uncoated solid bleaching agent (before coating)
[5] = per 100 g of water; cited from earlier work
[6] = uncoated solid bleaching agent (before coating)

Stability test 1: before coating, effective oxygen retention rate (%) [4] [%]	SMILES	Stability test 3: before coating, effective chlorine retention rate (%) [1] [%]	Stability test 2: effective chlorine retention rate ([2]; 1 month, 40° C., 75% RH) [%]	Stability test 2: before coating, effective chlorine retention rate (%) ([2]; uncoated, after 1 month)	Stability test 1: before coating, effective chlorine retention rate (%) [3, 6] [%]	Stability test 1: before coating, effective chlorine retention rate (%) ([3]; unprocessed solid bleaching agent mixed with detergent components and 3 ml tap water at 60° C., 18 hours at room temperature)	solubility with respect to water of 100 g [5] [g]
–	O=c1nc([O-])n(Cl)c(=O)n1Cl.[Na+] [Sodium dichloroisocyanurate]	0	0	0	12	12	–
25	O=C([O-])[O-].O=C([O-])[O-].OO.OO.OO.[Na+].[Na+].[Na+].[Na+] [Sodium percarbonate]	–	–	–	–	–	–
–	O=c1n(Cl)c(=O)n(Cl)c(=O)n1Cl [trichloroisocyanuric acid, Trichloroisocyanuric acid]	–	–	–	30	–	1.2
